# Read-outs that look alike come from different tables or passages of the source.
# Experiments:
# Format in all cases: in vivo
# kochia (Kochia scoparia) = assay: Test B pre-/postemergence plant response
# How it was run: (§1)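 Evaluation is visual, about 10 days after application, rating injury from 0 (none) to 100 (complete control) relative to untreated controls. Application was a preemergence soil spray on seeded pots or a postemergence spray on one- to two-leaf plants.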
# [1] = system: ragweed (common ragweed, Ambrosia elatior); assay: Test B pre-/postemergence plant response
# How it was run: as §1
# [2] = system: Italian ryegrass (Lolium multiflorum); assay: Test B pre-/postemergence plant response
# How it was run: as §1
# [3] = system: ducksalad (Heteranthera limosa); assay: Test C flooded paddy test plant response; conditions: Heteranthera limosa; Flood, 250 g ai/ha; scale of 0 to 100 where 0 is no effect and 100 is complete control; 13 to 15 days; read-out: Ducksalad plant response rating
# How it was run: (§2)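 2-leaf plants; flood 3 cm, cpd into paddy water; greenhouse 13–15 d; visual score vs untreated, 0 = no effect, 100 = complete control; dash = no result.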
# [4] = system: small-flower umbrella sedge (Cyperus difformis); assay: Test C flooded paddy test plant response; conditions: Cyperus difformis; Flood, 250 g ai/ha; scale of 0 to 100 where 0 is no effect and 100 is complete control; 13 to 15 days; read-out: Sedge, Umbrella plant response rating
# How it was run: as §2
# [5] = system: barnyardgrass (Echinochloa crus-galli); assay: Test C flooded paddy test plant response; conditions: Echinochloa crus-galli; Flood, 250 g ai/ha; scale of 0 to 100 where 0 is no effect and 100 is complete control; 13 to 15 days; read-out: Barnyardgrass plant response rating
# How it was run: as §2
# rice (Oryza sativa) = assay: Test C flooded paddy test plant response; conditions: Oryza sativa; Flood, 250 g ai/ha; scale of 0 to 100 where 0 is no effect and 100 is complete control; 13 to 15 days; read-out: Rice plant response rating
# How it was run: as §2
# [6] = system: pigweed (Amaranthus retroflexus); assay: Test D pre-/postemergence plant response; conditions: Amaranthus retroflexus; for pest or weed control at 31 g/ha: 31 g ai/ha; for pest or weed control at 62 g/ha: 62 g ai/ha; for pest or weed control at 125 g/ha: 125 g ai/ha
# How it was run: (§3)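 Ratings were visual, 0 = no effect to 100 = complete control, taken against untreated controls after 13 to 15 days in a greenhouse. Chemicals, formulated in non-phytotoxic surfactant-containing solvent, went onto soil (loam/sand) at planting for preemergence, or onto 1- to 4-leaf plants (2–18 cm) for postemergence.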
# [7] = system: oilseed rape (Brassica napus); assay: Test D pre-/postemergence plant response; conditions: Brassica napus; for plant injury at 31 g/ha: 31 g ai/ha; for plant injury at 62 g/ha: 62 g ai/ha
# How it was run: as §3
# [8] = system: giant foxtail (Setaria faberii); assay: Test D pre-/postemergence plant response; conditions: Setaria faberi; for pest or weed control at 16 g/ha: 16 g ai/ha; for pest or weed control at 31 g/ha: 31 g ai/ha; for pest or weed control at 62 g/ha: 62 g ai/ha; for pest or weed control at 125 g/ha: 125 g ai/ha
# How it was run: as §3
# [9] = system: johnsongrass (Sorghum halepense); assay: Test D pre-/postemergence plant response; conditions: Sorghum halepense; for pest or weed control at 31 g/ha: 31 g ai/ha; for pest or weed control at 62 g/ha: 62 g ai/ha; for pest or weed control at 125 g/ha: 125 g ai/ha
# How it was run: as §3
# [10] = system: velvetleaf (Abutilon theophrasti); assay: Test D pre-/postemergence plant response; conditions: Abutilon theophrasti; for pest or weed control at 31 g/ha: 31 g ai/ha; for pest or weed control at 62 g/ha: 62 g ai/ha; for pest or weed control at 125 g/ha: 125 g ai/ha
# How it was run: as §3
# [11] = system: blackgrass (Alopecurus myosuroides); assay: Test D pre-/postemergence plant response; conditions: Alopecurus myosuroides; for pest or weed control at 16 g/ha: 16 g ai/ha; for pest or weed control at 31 g/ha: 31 g ai/ha; for pest or weed control at 62 g/ha: 62 g ai/ha; for pest or weed control at 125 g/ha: 125 g ai/ha
# How it was run: as §3
# [12] = system: barnyardgrass (Echinochloa crus-galli); assay: Test D pre-/postemergence plant response; conditions: Echinochloa crus-galli; for pest or weed control at 16 g/ha: 16 g ai/ha; for pest or weed control at 31 g/ha: 31 g ai/ha; for pest or weed control at 62 g/ha: 62 g ai/ha; for pest or weed control at 125 g/ha: 125 g ai/ha
# How it was run: as §3
# [13] = 31 g ai/ha, Preemergence, 0 to 100 scale where 0 is no effect and 100 is complete control
# [14] = 125 g ai/ha, postemergence, 0 to 100 scale, 0 no effect, 100 complete control
# [15] = Postemergence, 31 g ai/ha, 0 to 100 scale (0 no effect, 100 complete control)
# [16] = Preemergence, 125 g ai/ha, 0 to 100 scale (0 no effect, 100 complete control)
# [17] = post-emergence, Postemergence, scale 0 to 100, 0 no effect, 100 complete control, read-out: Plant response rating, Pigweed
# [18] = pre-emergence, Preemergence, scale 0 to 100 (0 no effect, 100 complete control), read-out: Plant response rating, Pigweed
# [19] = pre-emergence, Preemergence, scale 0 to 100 (0 no effect, 100 complete control), read-out: Plant response rating, Oilseed Rape
# [20] = post-emergence, Postemergence, scale 0 to 100 (0 no effect, 100 complete control), read-out: Foxtail, Giant plant response rating
# [21] = post-emergence, Postemergence, scale 0 to 100, 0 no effect, 100 complete control, read-out: Plant response rating, Foxtail, Giant
# [22] = pre-emergence, Preemergence, scale 0 to 100 (0 no effect, 100 complete control), read-out: Plant response rating, Foxtail, Giant
# [23] = post-emergence, Postemergence, scale 0 to 100, 0 no effect, 100 complete control, read-out: Plant response rating, Johnsongrass
# [24] = pre-emergence, Preemergence, scale 0 to 100 (0 no effect, 100 complete control), read-out: Plant response rating, Johnsongrass
# [25] = post-emergence, Postemergence, scale 0 to 100, 0 no effect, 100 complete control, read-out: Plant response rating, Velvetleaf
# [26] = pre-emergence, Preemergence, scale 0 to 100 (0 no effect, 100 complete control), read-out: Plant response rating, Velvetleaf
# [27] = post-emergence, Postemergence, scale 0 to 100 (0 no effect, 100 complete control), read-out: Blackgrass plant response rating
# [28] = post-emergence, Postemergence, scale 0 to 100, 0 no effect, 100 complete control, read-out: Plant response rating, Blackgrass
# [29] = pre-emergence, Preemergence, scale 0 to 100 (0 no effect, 100 complete control), read-out: Plant response rating, Blackgrass
# [30] = post-emergence, Postemergence, scale 0 to 100 (0 no effect, 100 complete control), read-out: Barnyardgrass plant response rating
# [31] = post-emergence, Postemergence, scale 0 to 100, 0 no effect, 100 complete control, read-out: Plant response rating, Barnyardgrass
# [32] = pre-emergence, Preemergence, scale 0 to 100 (0 no effect, 100 complete control), read-out: Plant response rating, Barnyardgrass
smiles,measurement,setting,value
"Fc1cccc(Oc2ncc(Cl)cn2)c1-c1cc(C(F)F)no1 [Compound 144, 5-chloro-2-[2-[3-(difluoromethyl)-5-isoxazolyl]-3-fluorophenoxy]pyrimidine]","Plant response rating, Kochia",kochia (Kochia scoparia); [13],90
same,"Plant response rating, Kochia",kochia (Kochia scoparia); [14],100
same,"Plant response rating, Kochia",kochia (Kochia scoparia); [15],100
same,Kochia plant response rating,kochia (Kochia scoparia); [16],100
same,"Plant response rating, Ragweed",[1]; [13],0
same,"Plant response rating, Ragweed",[1]; [14],60
same,"Plant response rating, Ragweed",[1]; [15],20
same,Ragweed plant response rating,[1]; [16],50
same,"Plant response rating, Ryegrass, Italian",[2]; [13],0
same,"Plant response rating, Ryegrass, Italian",[2]; [14],100
same,"Plant response rating, Ryegrass, Italian",[2]; [15],20
same,"Ryegrass, Italian plant response rating",[2]; [16],90
same,pest or weed control at 250 g/ha,[3],90%
same,pest or weed control at 250 g/ha,[4],85%
same,pest or weed control at 250 g/ha,[5],98%
same,plant injury at 250 g/ha,rice (Oryza sativa),40%
same,pest or weed control at 31 g/ha,"[6]; post-emergence, Postemergence, scale 0 to 100 (0 no effect, 100 complete control), read-out: Pigweed plant response rating",98%
same,pest or weed control at 62 g/ha,[6]; [17],100%
same,pest or weed control at 125 g/ha,[6]; [17],100%
same,pest or weed control at 125 g/ha,"[6]; pre-emergence, Preemergence, read-out: Plant response rating (scale 0 to 100), Pigweed",100%
same,pest or weed control at 16 g/ha,"[6]; pre-emergence, Preemergence, 16 g ai/ha, scale 0 to 100 (0 no effect, 100 complete control), read-out: Plant response rating, Pigweed",100%
same,pest or weed control at 31 g/ha,[6]; [18],100%
same,pest or weed control at 62 g/ha,[6]; [18],100%
same,plant injury at 31 g/ha,"[7]; post-emergence, Postemergence, scale 0 to 100 (0 no effect, 100 complete control), read-out: Oilseed Rape plant response rating",80%
same,plant injury at 62 g/ha,"[7]; post-emergence, Postemergence, scale 0 to 100, 0 no effect, 100 complete control, read-out: Plant response rating, Oilseed Rape",95%
same,plant injury at 125 g/ha,"[7]; pre-emergence, Preemergence, 125 g ai/ha, read-out: Plant response rating (scale 0 to 100), Oilseed Rape",100%
same,plant injury at 16 g/ha,"[7]; pre-emergence, Preemergence, 16 g ai/ha, scale 0 to 100 (0 no effect, 100 complete control), read-out: Plant response rating, Oilseed Rape",98%
same,plant injury at 31 g/ha,[7]; [19],100%
same,plant injury at 62 g/ha,[7]; [19],100%
same,pest or weed control at 16 g/ha,[8]; [20],5%
same,pest or weed control at 31 g/ha,[8]; [20],10%
same,pest or weed control at 62 g/ha,[8]; [21],25%
same,pest or weed control at 125 g/ha,[8]; [21],25%
same,pest or weed control at 125 g/ha,"[8]; pre-emergence, Preemergence, read-out: Plant response rating (scale 0 to 100), Foxtail, Giant",100%
same,pest or weed control at 16 g/ha,[8]; [22],100%
same,pest or weed control at 31 g/ha,[8]; [22],100%
same,pest or weed control at 62 g/ha,[8]; [22],100%
same,pest or weed control at 31 g/ha,"[9]; post-emergence, Postemergence, scale 0 to 100 (0 no effect, 100 complete control), read-out: Johnsongrass plant response rating",10%
same,pest or weed control at 62 g/ha,[9]; [23],10%
same,pest or weed control at 125 g/ha,[9]; [23],50%
same,pest or weed control at 125 g/ha,"[9]; pre-emergence, Preemergence, read-out: Plant response rating (scale 0 to 100), Johnsongrass",100%
same,pest or weed control at 16 g/ha,"[9]; pre-emergence, Preemergence, 16 g ai/ha, scale 0 to 100 (0 no effect, 100 complete control), read-out: Plant response rating, Johnsongrass",20%
same,pest or weed control at 31 g/ha,[9]; [24],75%
same,pest or weed control at 62 g/ha,[9]; [24],100%
same,pest or weed control at 31 g/ha,"[10]; post-emergence, Postemergence, scale 0 to 100 (0 no effect, 100 complete control), read-out: Velvetleaf plant response rating",55%
same,pest or weed control at 62 g/ha,[10]; [25],75%
same,pest or weed control at 125 g/ha,[10]; [25],98%
same,pest or weed control at 125 g/ha,"[10]; pre-emergence, Preemergence, read-out: Plant response rating (scale 0 to 100), Velvetleaf",100%
same,pest or weed control at 16 g/ha,"[10]; pre-emergence, Preemergence, 16 g ai/ha, scale 0 to 100 (0 no effect, 100 complete control), read-out: Plant response rating, Velvetleaf",100%
same,pest or weed control at 31 g/ha,[10]; [26],100%
same,pest or weed control at 62 g/ha,[10]; [26],100%
same,pest or weed control at 16 g/ha,[11]; [27],5%
same,pest or weed control at 31 g/ha,[11]; [27],15%
same,pest or weed control at 62 g/ha,[11]; [28],15%
same,pest or weed control at 125 g/ha,[11]; [28],75%
same,pest or weed control at 125 g/ha,"[11]; pre-emergence, Preemergence, read-out: Plant response rating (scale 0 to 100), Blackgrass",95%
same,pest or weed control at 16 g/ha,[11]; [29],55%
same,pest or weed control at 31 g/ha,[11]; [29],95%
same,pest or weed control at 62 g/ha,[11]; [29],95%
same,pest or weed control at 16 g/ha,[12]; [30],5%
same,pest or weed control at 31 g/ha,[12]; [30],5%
same,pest or weed control at 62 g/ha,[12]; [31],10%
same,pest or weed control at 125 g/ha,[12]; [31],15%
same,pest or weed control at 125 g/ha,"[12]; pre-emergence, Preemergence, read-out: Plant response rating (scale 0 to 100), Barnyardgrass",100%
same,pest or weed control at 16 g/ha,[12]; [32],70%
same,pest or weed control at 31 g/ha,[12]; [32],80%
same,pest or weed control at 62 g/ha,[12]; [32],100%
